Data: publication PMC2984425, “Safety and pharmacokinetics of novel selective vascular endothelial growth factor receptor-2 inhibitor YN968D1 in patients with advanced malignancies” (BMC Cancer, 2010)
Like-named read-outs stand apart in the source and are kept apart here.

Assays:
VEGFR-2 = settings: no reference given; read-out: IC50, inhibitory effect on VEGFR-2; cited from earlier work
xenograft = test system: xenograft; parameters: method as in ref 8 = [8]; Chen P Iruela-Arispe L Lou L Sun P Yuan K VEGFr inhibitor YN968D1 xenograft dose response studies against human colon cancer Ls174t and HT29 Proc Amer Assoc Cancer Res 2006 47 abst 1764; settings: xenograft study; cited from earlier work
dogs = settings: previously established; cited from earlier work
advanced solid tumors = test: Tumor response by RECIST; assay type: in vivo, human
Protocol: Patients with measurable disease at baseline were evaluated for tumor response according to the Response Evaluation Criteria for Solid Tumors (RECIST). Radiographic studies (CT scan or MRI) for disease assessment were conducted at baseline and every 2 cycles (8 weeks) thereafter. The best overall response was reported. Disease control rate was defined as the percentage of patients with complete response (CR), partial response (PR), and stable disease (SD) for at least 8 weeks. The duration of overall response was defined as the period from the initial measurement of complete response (CR) or partial response (PR), whichever occurred first, to the first date of documented disease recurrence or progression. The same method and techniques of assessment were used to characterize each identified and reported lesion at baseline and at subsequent evaluations.

[1] = Plasma pharmacokinetics after single and multiple oral doses (LC-MS/MS, non-compartmental analysis); assay type: in vivo, human; settings: for Cmax / half-life / AUC(0-t) / Tmax: human, plasma; for AUC(0-t): read-out: AUC0-24, geometric mean; for Tmax: read-out: tmax, median
Protocol: The phase I study was designed in accordance with the Chinese State Food and Drug Administration (SFDA) recommendations (Guidance for Industry, 2005). PK evaluations were to be performed for single-dosing and multiple-dosing of which the dose levels were determined after completion of dose-escalation. Three dose levels (low, intermediate and high dose) for single-dosing and one dose level (the recommended dose for phase II) for multiple-dosing study, between 8 to 12 participants for each dose levels, were required to meet the SFDA guidance. A cross-over design to evaluate the effects of food intake was incorporated into the single-dosing assessment, also meeting the SFDA requirement, but data will be presented separately. […] Whole blood samples (1 ml) were collected at 0 (predose), 0.5, 1, 2, 3, 4, 6, 8, 12, 24, 32, and 48 hours for single-dosing evaluation and 0, 0.5, 1, 2, 3, 4, 6, 8, 12, and 24 hours (before the next dose) on days 1, 6, 28, and 56 for multiple-dosing evaluation. After the last dose on day 56, two additional samples were collected at 32 and 48 hours for multiple-dosing assessment. Plasma was collected from the blood samples following centrifugation, and stored at -80°C until analysis. […] The PK parameters, including area under the plasma concentration-time curve (AUC), maximum plasma concentration (Cmax), time to maximum concentration (tmax), and elimination half-life (t1/2) were determined by non-compartmental analysis using InnaPhase Kinetica 2000™ (InnaPhase Corp., Philadelphia, PA, USA). The linear-logarithmic trapezoidal method was used to calculate the AUC, and t1/2 λz was calculated by linear regression of the terminal slope of the logarithmic plasma concentration-time profile.

[2] = po, 500 mg, single oral dose 500 mg, n = 8
[3] = po, 750 mg, multiple oral dose of 750 mg, Day 1, n = 11
[4] = po, 750 mg, multiple oral dose of 750 mg, Day 6, n = 11
[5] = po, 750 mg, multiple oral dose of 750 mg, Day 28, n = 11
[6] = po, 750 mg, multiple oral dose of 750 mg, Day 56, n = 11
[7] = po, 750 mg, single oral dose 750 mg, n = 12
[8] = po, 850 mg, single oral dose 850 mg, n = 8

In the case of `N#CC1(c2ccc(NC(=O)c3cccnc3NCc3ccncc3)cc2)CCCC1` [apatinib], the IC50 (VEGFR-2) is given as 2.43 nM, the “in vivo efficacy compared to valatinib” value (xenograft) is given as “superior in vivo efficacy” and the “maximum-tolerated dose (MTD) in dogs” value (dogs) is given as “above 30 mg/kg”. For the same molecule, the “CR, evaluable patients” value (advanced solid tumors; 250 mg cohort) was 0, the “Disease control (%) CR+PR+SD” value (advanced solid tumors; 250 mg cohort) was 66.7% and the “Disease control CR+PR+SD, patients” value (advanced solid tumors; 250 mg cohort) was 2. The “PD, evaluable patients” value (advanced solid tumors; 250 mg cohort) was 1, the “PR, evaluable patients” value (advanced solid tumors; 250 mg cohort) was 1 and the “CR, evaluable patients” value (advanced solid tumors; 500 mg cohort) was 0. The “Disease control (%) CR+PR+SD” value (advanced solid tumors; 500 mg cohort) was 66.7%, the “Disease control CR+PR+SD, patients” value (advanced solid tumors; 500 mg cohort) was 6 and the “PD, evaluable patients” value (advanced solid tumors; 500 mg cohort) was 3. For the same molecule, the “PR, evaluable patients” value (advanced solid tumors; 500 mg cohort) was 2, the “CR, evaluable patients” value (advanced solid tumors; 750 mg cohort) was 0 and the “Disease control (%) CR+PR+SD” value (advanced solid tumors; 750 mg cohort) was 100%. For the same molecule, the “Disease control CR+PR+SD, patients” value (advanced solid tumors; 750 mg cohort) was 11, the “PD, evaluable patients” value (advanced solid tumors; 750 mg cohort) was 0 and the “PR, evaluable patients” value (advanced solid tumors; 750 mg cohort) was 2. The “CR, evaluable patients” value (advanced solid tumors; 850 mg cohort) was 0, the “Disease control (%) CR+PR+SD” value (advanced solid tumors; 850 mg cohort) was 90.9% and the “Disease control CR+PR+SD, patients” value (advanced solid tumors; 850 mg cohort) was 10. For the same molecule, the “PD, evaluable patients” value (advanced solid tumors; 850 mg cohort) was 1, the “PR, evaluable patients” value (advanced solid tumors; 850 mg cohort) was 2 and the “CR, evaluable patients” value (advanced solid tumors; 1000 mg cohort) was 0. For the same molecule, the “Disease control (%) CR+PR+SD” value (advanced solid tumors; 1000 mg cohort) was 66.7%, the “Disease control CR+PR+SD, patients” value (advanced solid tumors; 1000 mg cohort) was 2 and the “PD, evaluable patients” value (advanced solid tumors; 1000 mg cohort) was 1. For the same molecule, the “PR, evaluable patients” value (advanced solid tumors; 1000 mg cohort) was 0, the “patients who achieved PR” value (advanced solid tumors; 22 assessable patients with gastric and colorectal cancer) was 4 and the Disease control rate (advanced solid tumors; 22 assessable patients with gastric and colorectal cancer (n = 18)) was 81%. The “CR, evaluable patients” value (advanced solid tumors; Total, n = 37) was 0, the “Disease control CR+PR+SD, patients” value (advanced solid tumors; Total, n = 37) was 31 and the “PD, evaluable patients” value (advanced solid tumors; Total, n = 37) was 6. For the same molecule, the “Disease control (%) CR+PR+SD, disease control rate” value (advanced solid tumors; Total, n = 37, at 8 weeks) was 83.8%, the “Duration of PR” value (advanced solid tumors; one GIST patient who failed imatinib) was 24 months and the “PR, % of evaluable patients” value (advanced solid tumors; thirty-seven evaluable patients) was 18.9%. The “time to steady-state conditions” value ([1]; 750 mg once daily, multiple dosing) was no more than 6 days, the Cmax ([1]; oral, 750 mg, after a single dose of 750 mg, read-out: Cmax values, variation between patients) was 926 to 4620 ng/mL and the half-life ([1]; oral, constant over the dose levels 500-850 mg, read-out: elimination half-life of the terminal phase (t1/2 λz) (converted)) was 9 h. For the same molecule, the AUC(0-t) [1, 2] was 11300 ng·h/mL, the Cmax ([1]; po, 500 mg, single oral dose 500 mg, n = 8, read-out: Cmax, geometric mean) was 1520 ng/mL and the half-life ([1]; po, 500 mg, single oral dose 500 mg, n = 8, read-out: t1/2λz, mean (converted)) was 8.1 h. The Tmax [1, 2] was 3.5 h, the AUC(0-t) [1, 3] was 19400 ng·h/mL and the Cmax ([1]; po, 750 mg, multiple oral dose of 750 mg, Day 1, n = 11, read-out: Cmax, geometric mean) was 2420 ng/mL. The half-life ([1]; po, 750 mg, multiple oral dose of 750 mg, Day 1, n = 11, read-out: t1/2λz, mean (converted)) was 8.9 h, the Tmax [1, 3] was 3 h and the AUC(0-t) [1, 4] was 25400 ng·h/mL. For the same molecule, the Cmax ([1]; po, 750 mg, multiple oral dose of 750 mg, Day 6, n = 11, read-out: Cmax, geometric mean) was 2550 ng/mL, the half-life ([1]; po, 750 mg, multiple oral dose of 750 mg, Day 6, n = 11, read-out: t1/2λz, mean (converted)) was 11 h and the Tmax [1, 4] was 4 h. The AUC(0-t) [1, 5] was 19900 ng·h/mL, the Cmax ([1]; po, 750 mg, multiple oral dose of 750 mg, Day 28, n = 11, read-out: Cmax, geometric mean) was 2210 ng/mL and the half-life ([1]; po, 750 mg, multiple oral dose of 750 mg, Day 28, n = 11, read-out: t1/2λz, mean (converted)) was 11.3 h. For the same molecule, the Tmax [1, 5] was 4 h, the AUC(0-t) [1, 6] was 15600 ng·h/mL and the Cmax ([1]; po, 750 mg, multiple oral dose of 750 mg, Day 56, n = 11, read-out: Cmax, geometric mean) was 1850 ng/mL. It also gave a half-life ([1]; po, 750 mg, multiple oral dose of 750 mg, Day 56, n = 11, read-out: t1/2λz, mean (converted)) of 8.3 h, a Tmax [1, 6] of 3 h and an AUC(0-t) [1, 7] of 18200 ng·h/mL. The Cmax ([1]; po, 750 mg, single oral dose 750 mg, n = 12, read-out: Cmax, geometric mean) was 2380 ng/mL, the half-life ([1]; po, 750 mg, single oral dose 750 mg, n = 12, read-out: t1/2λz, mean (converted)) was 9 h and the Tmax [1, 7] was 3 h. It also gave an AUC(0-t) [1, 8] of 22000 ng·h/mL, a Cmax ([1]; po, 850 mg, single oral dose 850 mg, n = 8, read-out: Cmax, geometric mean) of 2830 ng/mL and a half-life ([1]; po, 850 mg, single oral dose 850 mg, n = 8, read-out: t1/2λz, mean (converted)) of 9.1 h. It also gave a Tmax [1, 8] of 4 h.
